target: HCV NS3-4A serine protease (full-length NS3-4A protein) (Hepatitis C virus genotype 1a (isolate 1) (HCV), UniProt P26664); experiment: HCV NS3-4A protease assay; format: biochemical, HCV genotype 1a; settings: strain HCV-1, fluorogenic peptide substrate, read-out: Protease assay Ex. 12 IC50
Procedure: The inhibitory activity of certain compounds of Table A against HCV NS3-4A serine protease is determined in a homogenous assay using the full-length NS3-4A protein (genotype 1a, strain HCV-1) and a commercially available internally-quenched fluorogenic peptide substrate as described by Taliani, M., et al. 1996 Anal. Biochem. 240:60-67, which is incorporated by reference in its entirety.

Chain of HCV NS3-4A serine protease (full-length NS3-4A protein) (P26664 1027-1657): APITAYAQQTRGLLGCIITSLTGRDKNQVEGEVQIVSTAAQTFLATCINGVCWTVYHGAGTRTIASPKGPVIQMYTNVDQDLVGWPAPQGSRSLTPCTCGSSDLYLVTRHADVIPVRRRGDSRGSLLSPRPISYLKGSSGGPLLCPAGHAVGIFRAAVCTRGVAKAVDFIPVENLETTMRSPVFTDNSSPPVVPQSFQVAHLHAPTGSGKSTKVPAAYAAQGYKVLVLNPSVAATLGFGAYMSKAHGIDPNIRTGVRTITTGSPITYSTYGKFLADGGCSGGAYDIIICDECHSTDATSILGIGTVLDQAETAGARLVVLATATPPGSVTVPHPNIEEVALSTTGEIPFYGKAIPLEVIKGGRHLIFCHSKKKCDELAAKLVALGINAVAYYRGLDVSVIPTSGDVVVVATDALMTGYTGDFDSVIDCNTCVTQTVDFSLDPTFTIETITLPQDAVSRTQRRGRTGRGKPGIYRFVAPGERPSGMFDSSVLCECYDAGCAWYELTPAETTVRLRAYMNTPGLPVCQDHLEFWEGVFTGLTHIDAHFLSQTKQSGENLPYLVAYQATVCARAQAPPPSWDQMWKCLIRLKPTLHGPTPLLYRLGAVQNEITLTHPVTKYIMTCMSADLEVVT
Chain of HCV NS3-4A serine protease (full-length NS3-4A protein) (P26664 1658-1711 partner): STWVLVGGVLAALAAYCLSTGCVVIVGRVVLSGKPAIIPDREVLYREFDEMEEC

Row | Structure (SMILES) | IC50 [nM]
1 | C=C[C@@H]1C[C@]1(NC(=O)[C@@H]1C[C@@]2(CN1C(=O)[C@@H](NC(=O)[C@@H](NC(=O)[C@@H]1CCCCN1C(C)C)C1CCCCC1)C(C)(C)C)C(C)(C)C21CCC1)C(=O)NS(=O)(=O)N(C)C [Compound 162, (5R,8S)-7-[(2S)-2-{[(2S)-2-cyclohexyl-2-{[(1-isopropylpiperidin-2-yl)carbonyl]amino}acetyl]amino}-3,3-dimethylbutanoyl]-N-[(1R,2S)-1-{[(dimethylamino)sulfonyl]carbamoyl}-2-vinylcyclopropyl]-10,10-dimethyl-7-azadispiro[3.0.4.1]decane-8-carboxamide] | 0.9
2 | C=C[C@@H]1C[C@]1(NC(=O)[C@@H]1C[C@@]2(CN1C(=O)[C@@H](NC(=O)[C@@H](NC(=O)[C@@H]1CCCCN1CC)C1CCCC1)C(C)(C)C)C(C)(C)C21CCC1)C(=O)NS(=O)(=O)N(CC)CC [Compound 81, (5R,8S)-7-[(2S)-2-{[(2S)-2-cyclopentyl-2-({[(2S)-1-ethylpiperidin-2-yl]carbonyl}amino)acetyl]amino}-3,3-dimethylbutanoyl]-N-[(1R,2S)-1-{[(diethylamino)sulfonyl]carbamoyl}-2-vinylcyclopropyl]-10,10-dimethyl-7-azadispiro[3.0.4.1]decane-8-carboxamide] | 4
3 | C=C[C@@H]1C[C@]1(NC(=O)[C@@H]1C[C@@]2(CN1C(=O)[C@@H](NC(=O)[C@@H](NC(=O)[C@@H]1CCCCN1C(C)C)C1CCCCC1)C(C)(C)C)C(C)(C)C21CCC1)C(=O)NS(=O)(=O)N(CC)CCC [Compound 106, (5R,8S)-7-[(2S)-2-{[(2S)-2-cyclohexyl-2-({[(2S)-1-isopropylpiperidin-2-yl]carbonyl}amino)acetyl]amino}-3,3-dimethylbutanoyl]-N-[(1R,2S)-1-({[ethyl(propyl)amino]sulfonyl}carbamoyl)-2-vinylcyclopropyl]-10,10-dimethyl-7-azadispiro[3.0.4.1]decane-8-carboxamide] | 10
4 | C=C[C@@H]1C[C@]1(NC(=O)[C@@H]1C[C@@]2(CN1C(=O)[C@@H](NC(=O)[C@@H](NC(=O)c1cc(C)nn1C(C)(C)C)C1CCCCC1)C(C)(C)C)C(C)(C)C21CCC1)C(=O)NS(=O)(=O)N1CCCC1 [Compound 183, (5R,8S)-7-[(2S)-2-{[{[(1-tert-butyl-3-methyl-1H-pyrazol-5-yl)carbonyl]amino}(cyclohexyl)acetyl]amino}-3,3-dimethylbutanoyl]-10,10-dimethyl-N-{(1R,2S)-1-[(pyrrolidin-1-ylsulfonyl)carbamoyl]-2-vinylcyclopropyl}-7-azadispiro[3.0.4.1]decane-8-carboxamide] | 95
5 | C=C[C@@H]1C[C@]1(NC(=O)[C@@H]1C[C@@]2(CN1C(=O)[C@@H](NC(=O)[C@@H](NC(=O)[C@@H]1CCCCN1CC)C1CCCCC1)C1CCOCC1)C(C)(C)C21CCC1)C(=O)NS(=O)(=O)N(CC)CC [Compound 85, (5R,8S)-7-[(2S)-2-{[(2S)-2-cyclohexyl-2-({[(2S)-1-ethylpiperidin-2-yl]carbonyl}amino)acetyl]amino}-2-(tetrahydro-2H-pyran-4-yl)acetyl]-N-[(1R,2S)-1-{[(diethylamino)sulfonyl]carbamoyl}-2-vinylcyclopropyl]-10,10-dimethyl-7-azadispiro[3.0.4.1]decane-8-carboxamide] | 4.5
6 | C=C[C@@H]1C[C@]1(NC(=O)[C@@H]1C[C@@]2(CN1C(=O)[C@@H](NC(=O)[C@@H](NC(=O)Cn1nc(C)cc1C)C1CCCCC1)C(C)(C)C)C(C)(C)C21CCC1)C(=O)NS(=O)(=O)N1CCCC1 [Compound 186, (5R,8S)-7-{(2S)-2-[(cyclohexyl{[(3,5-dimethyl-1H-pyrazol-1-yl)acetyl]amino}acetyl)amino]-3,3-dimethylbutanoyl}-10,10-dimethyl-N-{(1R,2S)-1-[(pyrrolidin-1-ylsulfonyl)carbamoyl]-2-vinylcyclopropyl}-7-azadispiro[3.0.4.1]decane-8-carboxamide] | 65
7 | C=C[C@@H]1C[C@]1(NC(=O)[C@@H]1C[C@@]2(CN1C(=O)[C@@H](NC(=O)[C@@H](NC(=O)c1nccc3ccccc13)C1CCCCC1)C(C)(C)C)C(C)(C)C21CCC1)C(=O)NS(=O)(=O)N1CCCC1 [Compound 195, (5R,8S)-7-[(2S)-2-({cyclohexyl[(isoquinolin-1-ylcarbonyl)amino]acetyl}amino)-3,3-dimethylbutanoyl]-10,10-dimethyl-N-{(1R,2S)-1-[(pyrrolidin-1-ylsulfonyl)carbamoyl]-2-vinylcyclopropyl}-7-azadispiro[3.0.4.1]decane-8-carboxamide] | 75
8 | C=C[C@@H]1C[C@]1(NC(=O)[C@@H]1C[C@@]2(CN1C(=O)[C@@H](NC(=O)[C@@H](NC(=O)[C@@H]1CCCCN1C(C)C)C1CCCCC1)C1CCCC1)C(C)(C)C21CCC1)C(=O)NS(=O)(=O)N1CCCC1 [Compound 66, (5R,8S)-7-[(2S)-2-{[(2S)-2-cyclohexyl-2-({[(2S)-1-isopropylpiperidin-2-yl]carbonyl}amino)acetyl]amino}-2-cyclopentylacetyl]-10,10-dimethyl-N-{(1R,2S)-1-[(pyrrolidin-1-ylsulfonyl)carbamoyl]-2-vinylcyclopropyl}-7-azadispiro[3.0.4.1]decane-8-carboxamide] | 5.5
9 | [2H]C([2H])([2H])C([2H])([2H])N1CCC[C@H]1C(=O)NC(C(=O)N[C@H](C(=O)N1C[C@]2(C[C@H]1C(=O)N[C@]1(C(=O)NS(=O)(=O)N3CCCC3)C[C@H]1C=C)C(C)(C)C21CCC1)C(C)(C)C)C1CCCCC1 (stereo partly drawn) [Compound 138, (5R,8S)-7-[(2S)-2-{[(2S)-2-cyclohexyl-2-({[(2S)-1-d5-ethylpyrrolidin-2-yl]carbonyl}amino)acetyl]amino}-3,3-dimethylbutanoyl]-10,10-dimethyl-N-{(1R,2S)-1-[(pyrrolidin-1-ylsulfonyl)carbamoyl]-2-vinylcyclopropyl}-7-azadispiro[3.0.4.1]decane-8-carboxamide-d5] | 3
10 | C=C[C@@H]1C[C@]1(NC(=O)[C@@H]1C[C@@]2(CN1C(=O)[C@@H](NC(=O)[C@@H](NC(=O)[C@@H]1CCCCN1C(C)C)C1CCCCC1)C(C)(C)C)C(C)(C)C21CCC1)C(=O)NS(=O)(=O)N(C)CCOC [Compound 56, (5R,8S)-7-[(2S)-2-{[(2S)-2-cyclohexyl-2-({[(2S)-1-isopropylpiperidin-2-yl]carbonyl}amino)acetyl]amino}-3,3-dimethylbutanoyl]-N-[(1R,2S)-1-({[(2-methoxyethyl)(methyl)amino]sulfonyl}carbamoyl)-2-vinylcyclopropyl]-10,10-dimethyl-7-azadispiro[3.0.4.1]decane-8-carboxamide] | 8
11 | C=C[C@@H]1C[C@]1(NC(=O)[C@@H]1C[C@@]2(CN1C(=O)[C@@H](NC(=O)[C@@H](NC(=O)c1cc(C)nn1CC)C1CCCCC1)C(C)(C)C)C(C)(C)C21CCC1)C(=O)NS(=O)(=O)N1CCCC1 [Compound 180, (5R,8S)-7-{(2S)-2-[(cyclohexyl{[(1-ethyl-3-methyl-1H-pyrazol-5-yl)carbonyl]amino}acetyl)amino]-3,3-dimethylbutanoyl}-10,10-dimethyl-N-{(1R,2S)-1-[(pyrrolidin-1-ylsulfonyl)carbamoyl]-2-vinylcyclopropyl}-7-azadispiro[3.0.4.1]decane-8-carboxamide] | 30
12 | C=C[C@@H]1C[C@]1(NC(=O)[C@@H]1C[C@@]2(CN1C(=O)[C@@H](NC(=O)[C@@H](NC(=O)[C@@H]1CCCCN1CCF)C(C)(C)C)C(C)(C)C)C(C)(C)C21CCC1)C(=O)NS(=O)(=O)N1CCCC1 [Compound 20, (5R,8S)-7-[(2S)-2-{[(2S)-2-({[(2S)-1-(2-fluoroethyl)piperidin-2-yl]carbonyl}amino)-3,3-dimethylbutanoyl]amino}-3,3-dimethylbutanoyl]-10,10-dimethyl-N-{(1R,2S)-1-[(pyrrolidin-1-ylsulfonyl)carbamoyl]-2-vinylcyclopropyl}-7-azadispiro[3.0.4.1]decane-8-carboxamide] | 70
13 | C=C[C@@H]1C[C@]1(NC(=O)[C@@H]1C[C@@]2(CN1C(=O)[C@@H](NC(=O)[C@@H](NC(=O)[C@@H]1CCCN1C(C)C)C1CCCCC1)C(C)(C)C)C(C)(C)C21CCC1)C(=O)NS(=O)(=O)N(CC)CC [Compound 62, (5R,8S)-7-[(2S)-2-{[(2S)-2-cyclohexyl-2-({[(2S)-1-isopropylpyrrolidin-2-yl]carbonyl}amino)acetyl]amino}-3,3-dimethylbutanoyl]-N-[(1R,2S)-1-{[(diethylamino)sulfonyl]carbamoyl}-2-vinylcyclopropyl]-10,10-dimethyl-7-azadispiro[3.0.4.1]decane-8-carboxamide] | 1
14 | C=C[C@@H]1C[C@]1(NC(=O)[C@@H]1C[C@@]2(CN1C(=O)[C@@H](NC(=O)[C@@H](NC(=O)[C@@H]1CCCN1CCF)C1CCCCC1)C1CCOCC1)C(C)(C)C21CCC1)C(=O)NS(=O)(=O)N1CCCC1 [Compound 73, (5R,8S)-7-[(2S)-2-{[(2S)-2-cyclohexyl-2-({[(2S)-1-(2-fluoroethyl)pyrrolidin-2-yl]carbonyl}amino)acetyl]amino}-2-(tetrahydro-2H-pyran-4-yl)acetyl]-10,10-dimethyl-N-{(1R,2S)-1-[(pyrrolidin-1-ylsulfonyl)carbamoyl]-2-vinylcyclopropyl}-7-azadispiro[3.0.4.1]decane-8-carboxamide] | 15
15 | C=C[C@@H]1C[C@]1(NC(=O)[C@@H]1C[C@@]2(CN1C(=O)[C@@H](NC(=O)[C@@H](NC(=O)[C@@H]1CCCN1CC)C1CCCCC1)C1(C)CCOCC1)C(C)(C)C21CCC1)C(=O)NS(=O)(=O)N(CC)CC [Compound 154, (5R,8S)-7-[(2S)-2-{[(2S)-2-cyclohexyl-2-({[(2S)-1-ethylpyrrolidin-2-yl]carbonyl}amino)acetyl]amino}-2-(4-methyltetrahydro-2H-pyran-4-yl)acetyl]-N-[(1R,2S)-1-{[(diethylamino)sulfonyl]carbamoyl}-2-vinylcyclopropyl]-10,10-dimethyl-7-azadispiro[3.0.4.1]decane-8-carboxamide] | 2.8

From patent US8613914B2, “Peptidomimetic sulfamide compounds and antiviral uses thereof” (Novartis AG, priority 2009, dated 2013)
